Assay results from patent publication US20220088056A1, “COMBINATION FOR TREATING CANCER” (NITTO DENKO CORPORATION, priority 2018, published 2022).

Experiments:
[1] = test system: hsa-miR-345-overexpressing HCT116 cells or control HCT116 cells; experiment: Cell number counting in hsa-miR-345-overexpressing versus control HCT116 cells after transfection with BcL-XL inhibitor (Example 3); format: cell-based; conditions: 25 pmol; hsa-miR-345-overexpressing vs hsa-miR-345 wild-type HCT116 line; days 1 and 4 after transfection; FIG. 3
Method: The anticancer activity of a BcL-XL inhibitor was evaluated in cancer cells in which miR-345 was overexpressed by a miR-345-related molecule.
The miR-345-related molecule used was Expression plasmid for human microRNA MIR345 (MI0000825, OriGene Technologies, Inc., Compound F).
A cell line overexpressing miR-345 was established by introducing Compound E to hsa-miR-345 wild-type HCT116 cells using Lipofectamine 3000 (Invitrogen Corp.), and picking up a single clone by drug selection. In the experiment, a clone was used which was confirmed to have the increased expression of hsa-miR-345-5p by qPCR. A hsa-miR-345 wild-type HCT116 cell line as a control was established by introducing Expression plasmid pCMV-MIR Vector (PCMVMIR, OriGene Technologies, Inc., Compound G) to hsa-miR-345 wild-type HCT116 cells using Lipofectamine 3000 (Invitrogen Corp.), and picking up a single clone by drug selection.
Transfection with Compound A was performed as follows: on the day before transfection, the hsa-miR-345-overexpressing HCT116 cells or the control HCT116 cells were seeded at 0.1×10^5 cells/well to a 6-well tissue culture plastic dish. 25 pmol of Compound A was added into 250 μL of Opti-MEM I Reduced Serum Medium (Invitrogen Corp.) and gently mixed. […] On days 1 and 4 after the transfection, the cell number was counted. […]

[2] = test system: human normal dermal fibroblasts NHDF-Ad-Der Fibroblasts; experiment: Influence on proliferation of normal cells, live and dead cell count with Hoechst 33342 / propidium iodide (Example 5); format: cell-based; conditions: 1.1+1.1 pmol, day 4 after transfection, compared with control (Compound C and Compound I), FIG. 5
Method: A combination of a BcL-XL inhibitor and a miR-345-related molecule was tested for the presence or absence of its influence on the proliferation of normal cells.
The BcL-XL inhibitor used was Compound A, and the miR-345-related molecule used was Compound B. Compound C was used as a negative control of the BcL-XL inhibitor, and Compound I was used as a negative control of the miR-345-related molecule.
The normal cells used were human normal dermal fibroblasts NHDF-Ad-Der Fibroblasts (Lonza Group AG, #CC-2511). The cells were cultured in Fibroblast Basal Medium (FBM™, Lonza Group AG, #CC-3131) containing FGM™-2 SingleQuots™ (Lonza Group AG, #CC-4126) under conditions of 37° C. and 5% CO2.
Transfection with the BcL-XL inhibitor and/or the miR-345-related molecule was performed as follows: on the day before transfection, NHDF was seeded at 0.15×10^4 cells/well to a 96-well tissue culture plastic dish. […] Live and dead cell numbers were counted using Celigo® Image Cytometer (Nexcelom Bioscience, LLC, #Celigo-106-0448) in which the number of cells stained with Hoechst 33342 was regarded as the total of the live and dead cell numbers and the number of cells stained with propidium iodide was regarded as the dead cell number.

With “Compound A: BcL-XL inhibitor: siRNA, sense 5'-GGUAUUGGUGAGUCGGAUCtt-3' (SEQ ID NO: 4), antisense 5'-GAUCCGACUCACCAAUACCtt-3' (SEQ ID NO: 5) (sense GGUAUUGGUGAGUCGGAUCTT; antisense GAUCCGACUCACCAAUACCTT; chemistry not given here)” the “cell proliferation-suppressing effect (cell number)” value [1] was “appeared more strongly in the hsa-miR-345-overexpressing line than in the hsa-miR-345 wild-type line” and the “suppression of the proliferation of normal cells” value [2] was “neither the BcL-XL inhibitor alone or the miR-345-related molecule alone nor their concurrent use suppressed the proliferation of normal cells”.
